The target in the experiment is MCH receptor (Homo sapiens, UniProt Q99705). The experiment is described as follows: High throughput functional screening FLIPR/FDSS6000 (intracellular Ca2+ evoked by MCH). It is filed as cell-based. The conditions noted are these: FLIPR/FDSS, antagonist activity vs 50 nM MCH. From the text:
High Throughput Functional Screening: FLIPR™
This assay utilized a non-endogenous, constitutively active version of the MCH receptor.
The concentration of free Ca^2+ in the cytosol of any cell is extremely low, whereas its concentration in the extracellular fluid and endoplasmic reticulum (ER) is very high. Thus, there is a large gradient tending to drive Ca^2+ into the cytosol across both the plasma membrane and ER. The FLIPR™ and FDSS6000™ systems (Molecular Devices Corporation, […] Photonics K.K.) are designed to perform functional cell-based assays, such as the measurement of intracellular calcium for high-throughput screening. The measurement of fluorescent is associated with calcium release upon activation of the Gq-coupled receptors.
Fluorometric Imaging Plate Reader system was used to allow for rapid, kinetic measurements of intracellular fluorescence in 96 well microplates (or 384 well microplates). Simultaneous measurements of fluorescence in all wells can be made by FLIPR or FDSS6000™ every second with high sensitivity and precision. These systems are ideal for measuring cell-based functional assays such as monitoring the intracellular calcium fluxes that occur within seconds after activation of the Gq coupled receptor.
Briefly, the cells are seeded into 96 well at 5.5×10^4 cells/well with complete culture media (Dulbecco's Modified Eagle Medium with 10% fetal bovine serum, 2 mM L-glutamine, 1 mM sodium pyruvate and 0.5 mg/ml G418, pH 7.4) for the assay next day. On the day of assay, the media is removed and the cells are incubated with 100 μl of loading buffer (4 μM Fluo4-AM in complete culture media containing 2.5 mM Probenicid, 0.5 mg/ml and 0.2% bovine serum albumin) in 5% CO2 incubator at 37° C. for 1 hr. The loading buffer is removed, and the cells are washed with wash buffer (Hank's Balanced Salt Solution containing 2.5 mM Probenicid, 20 mM HEPES, 0.5 mg/ml and 0.2% bovine serum albumin, pH 7.4)). One hundred fifty μl of wash buffer containing various concentrations of test compound is added to the cells, and the cells are incubated in 5% CO2 incubator at 37° C. for 30 min. […] 530 nm for 290 second. When antagonist activity of compound is tested, 50 nM of MCH is used.
Use of FLIPR™ and FDSS6000™ can be accomplished by following manufacturer's instruction (Molecular Device Corporation and […] Photonics K.K.).

Where [1] appears, read: class by percent of control at 10^−7 M or IC50, table after the classification, read-out: class.
[2] abbreviates: class by percent of control at 10^−7 M or IC50, read-out: class.
Where [3] appears, read: representative examples, read-out: IC50.

SMILES strings stand for the structures. Structures can show the parent of a compound that is named as a salt. Where two headings read alike, the source gives them in different places. Where only a bound is given, the exact number is not on record here.

Consider `CN(C)c1cc(N[C@H]2CC[C@@H](NC(=O)c3csc([N+](=O)[O-])c3)CC2)nc2ccccc12` [Example 3189, 5-Nitro-thiophene-3-carboxylic acid [cis-4-(4-dimethylamino-quinolin-2-ylamino)-cyclohexyl]-amide hydrochloride], for which the IC50 under setting [1] was below 50 nM.
Still for that read-out and setting: the same measure for `CN(C)N(c1ncc(Cl)cn1)[C@H]1CC[C@@H](NC(=O)c2cccnc2Oc2ccccc2)CC1` [Example 3137, N-[cis-4-(5-Chloro-dimethylamino-pyrimidin-2-ylamino)-cyclohexyl]-2-phenoxy-nicotinamide hydrochloride]: 50 to 200 nM; for `CN(C)c1ccnc(N[C@H]2CC[C@@H](NC(=O)c3ccccn3)CC2)n1` [Example 3208, Pyridine-2-carboxylic acid [cis-4-(4-dimethylamino-pyrimidin-2-ylamino)-cyclohexyl]-amide hydrochloride]: above 200 nM; for `Cc1cc(N[C@H]2CC[C@@H](NC(=O)COc3ccc(Cl)c(Cl)c3)CC2)nc2ccccc12` [Example 3101, 2-(3,4-Dichloro-phenoxy)-N-[cis-4-(4-methyl-quinolin-2-ylamino)-cyclohexyl]-acetamide hydrochloride]: below 50 nM.
Regarding `CN(C)c1ccnc(N[C@H]2CC[C@@H](NC(=O)c3cc(F)cc(Cl)c3)CC2)n1` [Example 3215, 3-Chloro-N-cis-4-(4-dimethylamino-pyrimidin-2-ylamino)-cyclohexyl]-5-fluoro-benzamide hydrochloride], the IC50 under setting [1] was 50 to 200 nM.
For `O=C(N[C@H]1CC[C@@H](Nc2ccc3ccccc3n2)CC1)c1cccnc1Oc1ccc(F)c(F)c1` [Example 3055, 2-(3,4-Difluoro-phenoxy)-N-[cis-4-(quinolin-2-ylamino)-cyclohexyl]-nicotinamide hydrochloride], the IC50 under setting [1] was below 50 nM.
Still for that read-out and setting: the same measure for `CN(C)c1ccnc(N[C@H]2CC[C@@H](CNC(=O)Cc3c(Cl)ccc(Cl)c3Cl)CC2)n1` [Example 3220, N-[cis-4-(4-Dimethylamino-pyrimidin-2-ylamino)-cyclohexylmethyl]-2-(2,3,6-trichloro-phenyl)-acetamide hydrochloride]: below 50 nM.
In the case of `Cc1cnc(N[C@H]2CC[C@@H](NC(=O)COc3cc(C(F)(F)F)nn3C)CC2)nc1N(C)C` [Example 3356, N-(cis-4-{[4-(dimethylamino)-5-methylpyrimidin-2-yl]amino}cyclohexyl)-2-{[1-methyl-3-(trifluoromethyl)-1H-pyrazol-5-yl]oxy}acetamide], under setting [2], the IC50 is below 50 nM.
For `CCN(C(=O)N[C@H]1CC[C@@H](Nc2ncc(C)c(N(C)C)n2)CC1)c1cccc(C)c1` [Example 3355, N′-(cis-4-{[4-(dimethylamino)-5-methylpyrimidin-2-yl]amino}cyclohexyl)-N-ethyl-N-(3-methylphenyl)urea], the IC50 under setting [2] was below 50 nM.
Take `Cc1cnc(N[C@H]2CC[C@@H](NC(=O)c3cc(F)cc(Cl)c3)CC2)nc1N(C)C` [Example 3388, 3-Chloro-N-[cis-4-(4-dimethylamino5-methyl-pyrimidin-2-ylamino)-cyclohexyl]5-fluoro-benzamide hydrochloride]: the IC50 under setting [1] was below 50 nM.
Still for that read-out and setting: in the case of `CN(C)c1ccnc(N[C@H]2CC[C@@H](NC(=O)c3ccc(-c4ccc(Cl)cc4)o3)CC2)n1` [Example 3199, 5-(4-Chloro-phenyl)-furan-2-carboxylic acid [cis-4-(4-dimethylamino-pyrimidin-2-ylamino)-cyclohexyl]-amide hydrochloride] it was below 50 nM.
Regarding `Cc1cnc(N[C@H]2CC[C@@H](NC(=O)c3ccc(F)c(F)c3)CC2)nc1N(C)C` [Example 2524, N-(cis-4-{[4-(Dimethylamino)-5-methylpyrimidin-2-yl]amino}cyclohexyl)-3,4-difluorobenzamide hydrochloride], the IC50 under setting [3] is 2.1 nM.
In the case of `CN(C)c1cc(N[C@H]2CC[C@@H](CNCc3ccc(Br)cc3OC(F)(F)F)CC2)nc2ccccc12` [Example 7, N^2-{cis-4-[(4-Bromo-2-trifluoromethoxy-benzyl)amino-methyl]-cyclohexyl}-N^4,N^4-dimethyl-quinoline-2,4-diamine dihydrochloride], the IC50 under setting [1] is below 50 nM and the IC50 under setting [3] turned out to be 11 nM.
`Cc1cnc(N[C@H]2CC[C@@H](NC(=O)c3cccnc3Oc3ccc(F)cc3)CC2)nc1N(C)C` [Example 3123, N-[cis-4-(4-Dimethylamino-5-methyl-pyrimidin-2-ylamino)-cyclohexyl]-2-(4-fluoro-phenoxy)-nicotinamide hydrochloride]: the IC50 under setting [1] is below 50 nM.
On the same count and under the same terms, the same measure for `Cc1cc(N[C@H]2CC[C@@H](NC(=O)c3cccc(CO)c3)CC2)nc2ccccc12` [Example 3177, 3-Hydroxymethyl-N-[cis-4-(4-methyl-quinolin-2-ylamino)-cyclohexyl]-benzamide hydrochloride]: 50 to 200 nM.
For `Cc1cc(N[C@H]2CC[C@@H](NC(=O)c3ccc(F)c(Cl)c3)CC2)nc2ccccc12` [Example 3239, 3-Chloro-4-fluoro-N-[cis-4-(4-methyl-quinolin-2-ylamino)-cyclohexyl]-benzamide methanesulfonic acid], the IC50 under setting [1] is below 50 nM.
On the same count and under the same terms, the same measure for `Cc1cc(N[C@H]2CC[C@@H](NC(=O)c3cc(F)ccc3F)CC2)nc2ccccc12` [Example 3164, 2,5-Difluoro-N-[cis-4-(4-methyl-quinolin-2-ylamino)-cyclohexyl]-benzamide hydrochloride]: 50 to 200 nM; for `CNc1nc(N[C@H]2CC[C@@H](CNCc3ccc(Br)cc3OC(F)(F)F)CC2)nc2c1CCCC2` [Example 11, N^2-{cis-4-[(4-Bromo-2-trifluoromethoxy-beny)amino-methyl]-cyclobexyl}-N^4-methyl-5,6,7,8-tetrahydro-quinazoline-2,4-diamine dihydrochloride]: below 50 nM; for `O=C(N[C@H]1CC[C@@H](Nc2ccc3ccccc3n2)CC1)c1ccc(F)c(Cl)c1` [Example 3038, 3-Chloro-4-fluoro-N-[cis-4-(quinolin-2-ylamino)-cyclohexyl]-benzamide hydrochloride]: below 50 nM.
With `Cc1cnc(N[C@H]2CC[C@@H](NC(=O)Nc3ccc(F)cc3)CC2)nc1N(C)C` [Example 3326, N-(cis-4-{[4-(dimethylamino)-5-methylpyrimidin-2-yl]amino}cyclohexyl)-N′-(4-fluorophenyl)urea], the IC50 under setting [2] was below 50 nM.
Consider `O=C(N[C@H]1CC[C@@H](Nc2ccc3ccccc3n2)CC1)c1ccc(Cl)c(Cl)c1` [Example 3040, 3,4-Dichloro-N-[cis-4-(quinolin-2-ylamino)-cyclohexyl]-benzamide hydrochloride], for which, under setting [1], the IC50 was below 50 nM.
Take `O=C(NC[C@H]1CC[C@@H](Nc2ccc3ccccc3n2)CC1)c1ccc(F)c(F)c1` [Example 3068, 3,4-Difluoro-N-[cis-4-(quinolin-2-ylamino)-cyclohexylmethyl]-benzamide hydrochloride]: the IC50 under setting [1] fell in the range of 50 to 200 nM.
Same read-out and setting: the same measure for `CN(C)c1cc(Cl)nc(N[C@H]2CC[C@@H](NC(=O)c3ccc(F)c(F)c3)CC2)n1` [Example 3234, N-[cis-4-(6-Chloro-4-dimethylamino-pyrimidin-2-ylamino)-cyclohexyl]-3,4-difluoro-benzamide hydrochloride]: above 200 nM.
In the case of `Cc1cnc(N[C@H]2CC[C@@H](C(=O)N[C@@H](C)c3ccc(Br)cc3)CC2)nc1N(C)C` [Example 3308, cis-N-[(1S)-1-(4-bromophenyl)ethyl]-4-{[4-(dimethylamino)-5-methylpyrimidin-2-yl]amino}cyclohexanecarboxamide], under setting [2], the IC50 is below 50 nM.
As to `CN(C)c1nc(N[C@H]2CC[C@@H](CNC(=O)c3cccnc3Oc3ccccc3)CC2)nc2c1CCCC2` [Example 3113, N-[cis-4-(4-Dimethylamino-5,6,7,8-tetrahydro-quinazolin-2-ylamino)-cyclohexylmethyl]-2-phenoxy-nicotinamide hydrochloride], under setting [1], the IC50 was above 200 nM.
Regarding `Cc1cccc(Oc2ncccc2C(=O)N[C@H]2CC[C@@H](Nc3cc(C)c4ccccc4n3)CC2)c1` [Example 3097, N-[cis-4-(4-Methylquinolin-2-ylamino)-cyclohexyl]-2-m-tolyloxy-nicotinamide hydrochloride], under setting [1], the IC50 was below 50 nM.
As for `Cc1cc(N[C@H]2CC[C@@H](NC(=O)COc3cccc(Cl)c3)CC2)nc2ccccc12` [Example 3099, 2-(3-Chloro-phenoxy)-N-[cis-4-(4-methyl-quinolin-2-ylamino)-cyclohexyl]-acetamide hydrochloride], the IC50 under setting [1] is below 50 nM.

The values are drawn from patent US20050197350A1, “Novel quinoline, tetrahydroquinazoline, and pyrimidine derivatives and methods of treatment related to the use thereof” (TAISHO PHARMACEUTICAL CO., LTD., priority 2003, published 2005).
